Literature values, collected in PMC2837554 (ChemMedChem, 2010).

How the values were obtained:
[1] = biological target: Aβ aggregates
[2] = biological target: aggregated Aβ; settings: reported value

CN(C)c1ccc(/C=C/C2=CC(=C/C=C3C=CC(=[N+](C)C)C=C3)/O[B-](F)(F)O2)cc1 [CRANAD-2]
Kd [1]: 0.038 µM

Cc1ccc2c(c1)sc(-c1ccc(N(C)C)cc1)[n+]2C [ThT, Thioflavin T]
Kd [2]: 2 µM
